Assay results reported in patent US6660742B2, “Compositions and methods of the use thereof achiral analogues of CC-1065 and the duocarmycins” (priority 2000, dated 2003).

How the values were obtained:
[1] = test system: panel of 60 human cancer cell lines; assay: NCI in-vitro cytotoxicity screen, whole panel; type: cell-based
[2] = test system: CCRF-CEM
Method: (§1) The compounds of this invention were also tested against the panel of 60 human cancer cell lines at the National Cancer Institute, Bethesda, Md. […] The cytrotoxicity studies were conducted using a 48 hour exposure, and measuring the optical density of sulforhodamide B-derived color.

[3] = test system: K-562
Method: as §1

[4] = test system: MOLT-4
Method: as §1

[5] = test system: SR
Method: as §1

[6] = test system: NCI-H23
Method: as §1

[7] = test system: NCI-H322M
[8] = test system: HT29
Method: as §1

[9] = test system: SF-268
Method: (§2) The compounds of this invention were also tested against the panel of 60 human cancer cell lines at the National Cancer Institute, Bethesda, Md. (44). The cytrotoxicity studies were conducted using a 48 hour exposure, and measuring the optical density of sulforhodamide B-derived color.

[10] = test system: LOX IMVI
Method: as §2

[11] = test system: OVCAR-8
Method: as §2

[12] = test system: TK-10
Method: as §1

[13] = test system: HS 578T
Method: as §2

[14] = test system: BT-549
Method: as §2

[15] = test system: L1210 leukemia; conditions: carzelesin 400 μg/kg, adozelesin 100 μg/kg; cited from earlier work
[16] = test system: melanoma; conditions: phase I clinical trial; cited from earlier work
[17] = mice; therapeutic doses; cited from earlier work
[18] = favoring the natural (+)-isomer; cited from earlier work

For `COc1cc2cc(C(=O)Nc3cc(O)ccc3CCCl)[nH]c2c(OC)c1OC` [Compound 3, 4-(2-Chloroethyl)-3-(5,6,7-trimethoxyindole-2-carboxamino)phenol], the range of activity ([1]; 48 hour exposure) was “micromolar range”, the “activity against leukemia cells” value ([1]; leukemia cells) was “none of these compounds showed much activity” and the “activity against melanoma cells” value ([1]; melanoma cells) was “active”. For the same compound, the “activity against solid tumors cells” value ([1]; solid tumors cells) was “strong activity”, the CC50 [2] was > 100 µM and the CC50 [3] was > 100 µM. The CC50 [4] was > 100 µM, the CC50 [5] was > 100 µM and the CC50 [6] was > 100 µM. The CC50 [7] was > 100 µM, the GI50 [7] was 2.81 µM and the CC50 [8] was > 100 µM. The CC50 [9] was > 100 µM, the CC50 [10] was > 100 µM and the CC50 [11] was > 100 µM. For the same compound, the CC50 [12] was 23.5 µM, the CC50 [13] was > 100 µM and the CC50 [14] was > 100 µM.
In the case of `Cc1c[nH]c2c1[C@@]13C[C@@H]1CN(C(=O)c1cc4cc(NC(=O)c5cc6ccccc6o5)ccc4[nH]1)C3=CC2=O` [adozelesin], the ILS [15] is given as 90±11%, the survival [15] is given as 0/6 and the clinical response [16] is given as “partial response”. For the same compound, the “delayed lethality / delayed toxicity” value [17] was “devoid of the delayed toxicity problem”.
For CPI-In-In, the “difference in cytotoxicity between enantiomers” value [18] is listed as “about 250 fold”.
